{"source": "ChEMBL document CHEMBL1649227", "about": "“In vitro antiviral activity of V-073 against polioviruses” (Antimicrob Agents Chemother, 2009)", "key": {"[1]": {"test_system": "Enterovirus C", "test": "Antiviral activity against Poliovirus 10243 serotype PV2 obtained from immunodeficient chronic excretor infected in […] LLC-MK2 cells assessed as inhibition of viral-replication induced cytopathic effect", "type": "functional, organism-based", "settings": "10243 serotype PV2, LLC-MK2"}, "[2]": {"test_system": "Enterovirus C", "test": "Antiviral activity against Poliovirus 10221 serotype PV2 obtained from immunodeficient chronic excretor infected in […] LLC-MK2 cells assessed as inhibition of viral-replication induced cytopathic effect", "type": "functional, organism-based", "settings": "10221 serotype PV2, LLC-MK2"}, "[3]": {"test_system": "Enterovirus C", "test": "Antiviral activity against Poliovirus 10228 serotype PV2 obtained from immunodeficient chronic excretor infected in […] LLC-MK2 cells assessed as inhibition of viral-replication induced cytopathic effect", "type": "functional, organism-based", "settings": "10228 serotype PV2, LLC-MK2"}, "[4]": {"test_system": "Enterovirus C", "test": "Antiviral activity against Poliovirus 10226 serotype PV2 obtained from immunodeficient chronic excretor infected in […] LLC-MK2 cells assessed as inhibition of viral-replication induced cytopathic effect", "type": "functional, organism-based", "settings": "10226 serotype PV2, LLC-MK2"}, "[5]": {"test_system": "Enterovirus C", "test": "Antiviral activity against Poliovirus 10227 serotype PV2 obtained from immunodeficient chronic excretor infected in […] LLC-MK2 cells assessed as inhibition of viral-replication induced cytopathic effect", "type": "functional, organism-based", "settings": "10227 serotype PV2, LLC-MK2"}, "[6]": {"test_system": "Enterovirus C", "test": "Antiviral activity against Poliovirus Lansing serotype PV2 infected in […] LLC-MK2 cells assessed as inhibition of viral-replication induced cytopathic effect", "type": "functional, organism-based"}, "[7]": {"test_system": "Enterovirus C", "test": "Antiviral activity against Poliovirus MEF-1 serotype PV2 infected in […] LLC-MK2 cells assessed as inhibition of viral-replication induced cytopathic effect", "type": "functional, organism-based", "settings": "MEF-1 serotype PV2, LLC-MK2"}, "[8]": {"test_system": "Enterovirus C", "test": "Antiviral activity against Poliovirus P712 serotype PV2 vaccine-derived infected in […] LLC-MK2 cells assessed as inhibition of viral-replication induced cytopathic effect", "type": "functional, organism-based"}, "[9]": {"test_system": "Enterovirus C", "test": "Antiviral activity against Poliovirus PV2-P712 serotype PV2 obtained from immunodeficient chronic excretor infected in […] LLC-MK2 cells assessed as inhibition of viral-replication induced cytopathic effect", "type": "functional, organism-based"}, "[10]": {"test_system": "Enterovirus C", "test": "Antiviral activity against Poliovirus 10804 serotype PV3 obtained from immunodeficient chronic excretor infected in […] LLC-MK2 cells assessed as inhibition of viral-replication induced cytopathic effect", "type": "functional, organism-based", "settings": "10804 serotype PV3, LLC-MK2"}, "[11]": {"test_system": "Enterovirus C", "test": "Antiviral activity against Poliovirus 10805 serotype PV3 infected in […] LLC-MK2 cells assessed as inhibition of viral-replication induced cytopathic effect", "type": "functional, organism-based", "settings": "10805 serotype PV3, LLC-MK2"}, "[12]": {"test_system": "Enterovirus C", "test": "Antiviral activity against Poliovirus Saukett serotype PV3 infected in […] LLC-MK2 cells assessed as inhibition of viral-replication induced cytopathic effect", "type": "functional, organism-based"}, "[13]": {"test_system": "Enterovirus C", "test": "Antiviral activity against Poliovirus Leon serotype PV3 infected in […] LLC-MK2 cells assessed as inhibition of viral-replication induced cytopathic effect", "type": "functional, organism-based"}, "[14]": {"test_system": "Enterovirus C", "test": "Antiviral activity against Poliovirus PV3-Leon serotype PV3 vaccine-derived infected in […] LLC-MK2 cells assessed as inhibition of viral-replication induced cytopathic effect", "type": "functional, organism-based"}, "[15]": {"test": "Selectivity index, ratio of CC50 for human HeLa cells to EC50 for poliovirus", "type": "toxicity, cell-based", "settings": "read-out: Ratio CC50/EC50"}, "[16]": {"test": "Selectivity index, ratio of CC50 for african green monkey BGMK cells to EC50 for poliovirus", "type": "toxicity, cell-based", "settings": "read-out: Ratio CC50/EC50"}, "[17]": {"test_system": "HeLa", "test": "Cytotoxicity against human HeLa cells after 18 to 24 hrs by MTT assay", "type": "cell-based"}, "[18]": {"test": "Cytotoxicity against african green monkey BGMK cells after 18 to 24 hrs by MTT assay", "type": "cell-based", "settings": "chlorocebus aethiops"}, "[19]": {"test_system": "Coxsackievirus A9", "test": "Antiviral activity against Coxsackievirus serotype A9 infected in african green monkey BGMK cells assessed as inhibition of virus induced cytopathic effect after 18 to 24 hrs", "type": "functional, organism-based", "settings": "Enterovirus B"}, "[20]": {"test_system": "Coxsackievirus B1", "test": "Antiviral activity against Coxsackievirus serotype B1 infected in african green monkey BGMK cells assessed as inhibition of virus induced cytopathic effect after 18 to 24 hrs", "type": "functional, organism-based", "settings": "Enterovirus B"}, "[21]": {"test_system": "Coxsackievirus B2", "test": "Antiviral activity against Coxsackievirus serotype B2 infected in african green monkey BGMK cells assessed as inhibition of virus induced cytopathic effect after 18 to 24 hrs", "type": "functional, organism-based", "settings": "Enterovirus B"}, "[22]": {"test_system": "Coxsackievirus B3", "test": "Antiviral activity against Coxsackievirus serotype B3 infected in african green monkey BGMK cells assessed as inhibition of virus induced cytopathic effect after 18 to 24 hrs", "type": "functional, organism-based", "settings": "Enterovirus B"}, "[23]": {"test_system": "Coxsackievirus B4", "test": "Antiviral activity against Coxsackievirus serotype B4 infected in african green monkey BGMK cells assessed as inhibition of virus induced cytopathic effect after 18 to 24 hrs", "type": "functional, organism-based", "settings": "Enterovirus B"}, "[24]": {"test_system": "Coxsackievirus B5", "test": "Antiviral activity against Coxsackievirus serotype B5 infected in african green monkey BGMK cells assessed as inhibition of virus induced cytopathic effect after 18 to 24 hrs", "type": "functional, organism-based", "settings": "Enterovirus B"}, "[25]": {"test_system": "enterovirus D68", "test": "Antiviral activity against Enterovirus serotype 68 infected in african green monkey BGMK cells assessed as inhibition of virus induced cytopathic effect after 18 to 24 hrs", "type": "functional, organism-based", "settings": "Enterovirus D"}, "[26]": {"test_system": "Human enterovirus 70", "test": "Antiviral activity against Enterovirus serotype 70 infected in african green monkey BGMK cells assessed as inhibition of virus induced cytopathic effect after 18 to 24 hrs", "type": "functional, cell-based, enterovirus D70", "settings": "Enterovirus D"}, "[27]": {"test_system": "Enterovirus A71", "test": "Antiviral activity against Enterovirus serotype 71 infected in african green monkey BGMK cells assessed as inhibition of virus induced cytopathic effect after 18 to 24 hrs", "type": "functional, organism-based", "settings": "Enterovirus A"}, "[28]": {"test": "Solubility of the compound", "type": "physicochemical"}}}
{"smiles": "COc1ccc(OCc2ccc(COc3c(Cl)cccc3Cl)cc2)c(Cl)c1", "values": [{"measurement": "EC50", "setting": "[1]", "result": 0.038, "unit": "µM"}, {"measurement": "EC50", "setting": "[2]", "result": 0.027, "unit": "µM"}, {"measurement": "EC50", "setting": "[3]", "result": 0.126, "unit": "µM"}, {"measurement": "EC50", "setting": "[4]", "result": 0.019, "unit": "µM"}, {"measurement": "EC50", "setting": "[5]", "result": 0.019, "unit": "µM"}, {"measurement": "EC50", "setting": "[6]", "result": 0.007, "unit": "µM"}, {"measurement": "EC50", "setting": "[7]", "result": 0.026, "unit": "µM"}, {"measurement": "EC50", "setting": "[8]", "result": 0.003, "unit": "µM"}, {"measurement": "EC50", "setting": "[9]", "result": 0.016, "unit": "µM"}, {"measurement": "EC50", "setting": "[10]", "result": 0.042, "unit": "µM"}, {"measurement": "EC50", "setting": "[11]", "result": 0.029, "unit": "µM"}, {"measurement": "EC50", "setting": "[12]", "result": 0.062, "unit": "µM"}, {"measurement": "EC50", "setting": "[13]", "result": 0.109, "unit": "µM"}, {"measurement": "EC50", "setting": "[14]", "result": 0.02, "unit": "µM"}, {"measurement": "selectivity ratio", "setting": "[15]", "result": 75}, {"measurement": "selectivity ratio", "setting": "[16]", "result": 75}, {"measurement": "Activity", "setting": "[17]", "result": "> 50", "unit": "µg/mL"}, {"measurement": "Activity", "setting": "[18]", "result": "> 50", "unit": "µg/mL"}, {"measurement": "EC50", "setting": "[19]", "result": 3.79, "unit": "µM"}, {"measurement": "EC50", "setting": "[20]", "result": 3.79, "unit": "µM"}, {"measurement": "EC50", "setting": "[21]", "result": 3.79, "unit": "µM"}, {"measurement": "EC50", "setting": "[22]", "result": 3.79, "unit": "µM"}, {"measurement": "EC50", "setting": "[23]", "result": 3.79, "unit": "µM"}, {"measurement": "EC50", "setting": "[24]", "result": 3.79, "unit": "µM"}, {"measurement": "MIC90", "setting": "[25]", "result": 1.42, "unit": "µM"}, {"measurement": "EC50", "setting": "[25]; BGMK", "result": 3.47, "unit": "µM"}, {"measurement": "MIC90", "setting": "[26]", "result": 1.42, "unit": "µM"}, {"measurement": "EC50", "setting": "[26]; BGMK", "result": 3.47, "unit": "µM"}, {"measurement": "MIC90", "setting": "[27]", "result": 1.42, "unit": "µM"}, {"measurement": "EC50", "setting": "[27]; BGMK", "result": 3.47, "unit": "µM"}, {"measurement": "solubility", "setting": "[28]", "result": 14, "unit": "µM"}]}
